Measured values from the SangsterLogP compilation.

Going from `CCc1cnc(NS(=O)(=O)c2ccc(N)cc2)nc1` to `Cc1cnc(NS(=O)(=O)c2ccc(N)cc2)nc1`, the logP falls from 0.84 to 0.17.

First: N#Cc1cccnc1NS(=O)(=O)c1ccc(N)cc1
Second: Nc1ccc(S(=O)(=O)Nc2ncccc2Cl)cc1
The logP of the first is lower: 0.15 for the first, 0.82 for the second.

Going from `Cc1ccc(NS(=O)(=O)c2ccc(N)cc2)nc1` to `Nc1ccc(S(=O)(=O)Nc2ccc(Br)cn2)cc1`, the logP rises from 0.49 to 2.3.

First: CN(C)c1ccc(NS(=O)(=O)c2ccc(N)cc2)nc1
Second: Nc1ccc(S(=O)(=O)Nc2ccc(Cl)cn2)cc1
The logP of the first is lower: 1.23 for the first, 1.82 for the second.

Compared with `Nc1ccc(S(=O)(=O)Nc2ccc(Cl)nc2)cc1`, `Nc1ccc(S(=O)(=O)Nc2cccnc2Cl)cc1` is lower in logP: 2.24 for the first, 1.58 for the second.

Going from `Cc1cnc(NS(=O)(=O)c2ccc(N)cc2)c(Br)c1` to `Nc1ccc(S(=O)(=O)Nc2ncc(Br)cc2Br)cc1`, the logP rises from 1.79 to 2.74.

Compared with `COc1ccccc1NS(=O)(=O)c1ccc(N)cc1`, `Cc1ccccc1NS(=O)(=O)c1ccc(N)cc1` is higher in logP: 1.56 for the first, 2.03 for the second.

Compared with `Nc1ccc(S(=O)(=O)Nc2ccccc2[N+](=O)[O-])cc1`, `Nc1ccc(S(=O)(=O)Nc2ccccc2Cl)cc1` is higher in logP: 1.76 for the first, 2 for the second.

`Nc1ccc(S(=O)(=O)Nc2ncc(Cl)cc2Cl)cc1` and `Cc1cc(Br)cnc1NS(=O)(=O)c1ccc(N)cc1` are within 0.2 log units of each other in logP: 1.97 for the first, 2.05 for the second.

First: Nc1ccc(S(=O)(=O)Nc2ncccc2Br)cc1
Second: Cc1cccnc1NS(=O)(=O)c1ccc(N)cc1
The logP of the first is higher: 1.24 for the first, 0.26 for the second.
